Consider eight compounds from PubChem BioAssay (NCI).

Among the test systems are OVCAR-3 ovarian; SK-MEL-2 melanoma; A549 NSCLC; RPMI-8226 leukemia; IGROV1 ovarian; SR leukemia; SF-539 CNS; OVCAR-5 ovarian; HL-60(TB) leukemia; KM12 colon; OVCAR-8 ovarian; HCT-116 colon; SNB-19 CNS; HCC-2998 colon; UO-31 renal; HT29 colon; EKVX NSCLC; MCF7 breast.
What all share (assay): NCI tumour cell line growth inhibition, 48 h

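All cell lines were grown in 96-well plates and treated with compound for 48 hours. TGI denotes the concentration required for complete inhibition of growth.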 Some results are limits rather than exact numbers.

In the case of `COc1ccc(-c2nc3c(nc2-c2ccc(OC)cc2)N(C)S(=O)(=O)N=C3N)cc1`, the TGI was 31 µM in the assay with OVCAR-3 ovarian; 57.7 µM in the assay on SK-MEL-2 melanoma; over 100 µM in the assay on A549 NSCLC; 40.6 µM in the assay on RPMI-8226 leukemia; over 100 µM with IGROV1 ovarian; 35.3 µM in the assay on SR leukemia. The TGI in the assay with SF-539 CNS was 51.5 µM; in the assay on OVCAR-5 ovarian, 94.6 µM; in the assay with HL-60(TB) leukemia, 43.7 µM; in the assay on KM12 colon, 92.2 µM; in the assay on OVCAR-8 ovarian, over 100 µM; in the assay on HCT-116 colon it was 30.7 µM. Besides, the TGI in the assay with SNB-19 CNS is over 100 µM; in the assay on HCC-2998 colon, over 100 µM; in the assay with UO-31 renal it was 53.2 µM; in the assay with HT29 colon, 74.9 µM.

With `COc1cc2cc(C(=O)N3CC(CCl)c4c3cc(O)c3ccccc43)[nH]c2c(OC)c1OC` (stereo unspecified), the TGI with OVCAR-3 ovarian was 8.42 µM; in the assay on SK-MEL-2 melanoma it was under 0.005 µM; with A549 NSCLC, over 50 µM; with RPMI-8226 leukemia, over 50 µM; in the assay with SR leukemia it was over 50 µM; with SF-539 CNS it was under 0.005 µM. Moreover, the TGI in the assay on OVCAR-5 ovarian was 0.549 µM; in the assay with HL-60(TB) leukemia, under 0.005 µM; in the assay with KM12 colon it was over 50 µM; in the assay with OVCAR-8 ovarian it was over 50 µM; in the assay with HCT-116 colon it was 5.85 µM; with SNB-19 CNS it was 1.12 µM. For the same compound, the TGI with HCC-2998 colon is under 0.005 µM; in the assay on EKVX NSCLC it was 0.597 µM; in the assay on UO-31 renal, over 50 µM; in the assay on HT29 colon, over 50 µM.

For the compound `Cc1cc(C)c(C(=O)/C=C/c2ccccc2)c(C)c1`, the TGI in the assay on SK-MEL-2 melanoma is 30.8 µM; in the assay with A549 NSCLC, over 100 µM; in the assay on RPMI-8226 leukemia, 90.5 µM; with IGROV1 ovarian, over 100 µM; in the assay with SR leukemia it was over 100 µM; in the assay with HL-60(TB) leukemia, over 100 µM. In addition, the TGI with KM12 colon is over 100 µM; in the assay on OVCAR-8 ovarian, 30 µM; with HCT-116 colon, 78.2 µM; in the assay on SNB-19 CNS it was 75.3 µM; in the assay with EKVX NSCLC, over 100 µM; with UO-31 renal, over 100 µM. In the assay on HT29 colon, this compound had a TGI of over 100 µM.

In the case of `Cc1c(-c2ccc(O)c(O)c2)oc(=O)c2c(O)cccc12`, the TGI in the assay on OVCAR-3 ovarian is 66.1 µM; in the assay on SK-MEL-2 melanoma it was 28 µM; in the assay with A549 NSCLC, over 100 µM; in the assay with RPMI-8226 leukemia it was 50 µM; in the assay with IGROV1 ovarian, 20.1 µM; in the assay on SF-539 CNS it was 48.4 µM. The TGI with OVCAR-5 ovarian is 33.5 µM; in the assay with HL-60(TB) leukemia it was over 100 µM; in the assay with KM12 colon, 24.2 µM; in the assay on OVCAR-8 ovarian, over 100 µM; in the assay with MCF7 breast, 34.4 µM; in the assay with HCT-116 colon, 20 µM. The TGI in the assay with SNB-19 CNS is 36.1 µM; in the assay on HCC-2998 colon it was 22.1 µM; in the assay on EKVX NSCLC, over 100 µM; with UO-31 renal, 24.4 µM.

On to `NC(C(=O)OC(=O)c1ccccc1)C(=O)OC(=O)c1ccccc1`, for which the TGI with OVCAR-3 ovarian, in the assay on SK-MEL-2 melanoma, in the assay on A549 NSCLC, with RPMI-8226 leukemia, in the assay on SF-539 CNS and with OVCAR-5 ovarian was over 100 µM in each case. Besides, the TGI with KM12 colon, with OVCAR-8 ovarian, in the assay on MCF7 breast, in the assay with HCT-116 colon, in the assay with SNB-19 CNS and with EKVX NSCLC was over 100 µM each time. Also, the TGI in the assay on UO-31 renal and in the assay with HT29 colon was over 100 µM throughout.

For the compound `CCCCc1c2c(nc3c1CC/C(=C\c1ccc([N+](=O)[O-])cc1)C3=O)CCCC2`, the TGI with OVCAR-3 ovarian was 3.14 µM; in the assay on A549 NSCLC, 16.3 µM; with RPMI-8226 leukemia, 5.69 µM; in the assay on IGROV1 ovarian it was 3.24 µM; in the assay with SR leukemia, 35.5 µM; in the assay on SF-539 CNS, 3.2 µM. The TGI was found to be 3.52 µM in the assay on KM12 colon; 3.47 µM in the assay with OVCAR-8 ovarian; 3.22 µM in the assay on HCT-116 colon; 3.67 µM in the assay on SNB-19 CNS; 3.17 µM in the assay on HCC-2998 colon; 23.7 µM with EKVX NSCLC. Moreover, the TGI stood at 4.13 µM in the assay with UO-31 renal and 2.66 µM in the assay on HT29 colon.

As to `COC1=CC(=O)NCCN1`, the TGI in the assay with OVCAR-3 ovarian, in the assay with SK-MEL-2 melanoma, in the assay with A549 NSCLC, with IGROV1 ovarian, with SR leukemia and in the assay on SF-539 CNS was over 100 µM in each case. The TGI is over 100 µM in the assay with OVCAR-5 ovarian; 41 µM with HL-60(TB) leukemia; over 100 µM in the assay on KM12 colon; over 100 µM in the assay with OVCAR-8 ovarian; over 100 µM in the assay with HCT-116 colon; over 100 µM with SNB-19 CNS. The TGI with HCC-2998 colon, with EKVX NSCLC, in the assay with UO-31 renal and in the assay on HT29 colon was over 100 µM throughout.

Regarding `CCN(CC)CC(=O)Nc1ccc2c(c1)C(=O)c1ccc(NC(=O)CN(CC)CC)cc1C2=O`, the TGI was over 100 µM in the assay on SK-MEL-2 melanoma; over 100 µM in the assay on A549 NSCLC; over 100 µM in the assay with RPMI-8226 leukemia; 51.6 µM with IGROV1 ovarian; 41.7 µM in the assay on SR leukemia; 30.9 µM in the assay on SF-539 CNS. Further, the TGI is over 100 µM with OVCAR-5 ovarian; 44.5 µM with HL-60(TB) leukemia; 70 µM with KM12 colon; 94.9 µM in the assay with OVCAR-8 ovarian; 30.5 µM in the assay with HCT-116 colon; 81.3 µM with SNB-19 CNS. Besides, the TGI in the assay on HCC-2998 colon, in the assay with EKVX NSCLC, in the assay with UO-31 renal and in the assay with HT29 colon was over 100 µM each time.
